We go through five molecules from EP0048827A1, “Substituted 2,4-dichlorophenyl-imidazolyl-vinyl ketones, processes for their preparation and antimicrobial agents containing these compounds” (BAYER AG, priority 1980, dated 1982).

This assay relates to Dermatophyten und Schimmelpilze; Hefen. Kind of assay: Antimycotic in-vitro activity, serial dilution test. The assay is classed as cell-based. The following applies: 28°C, 24 h for yeasts, 96 h for dermatophytes and moulds, compared with the prior-art compound (A). As to the method:
Die in-vitro-Prüfung wurde im Reihenverdünnungstest mit Keiminokula von durchschnittlich […] Substrat durchgeführt. Als Nährmedium dienten • a) für Dermatophyten und Schimmelpilze: Sabourand's milieu d'epresive • b) für Hefen: Isotonic Sensitest-Broth von Oxid.
Die Bebrütungstemperatur betrug 28°C; Bebrütungsdauer war 24 Stunden bei Hefen und 96 Stunden bei Dermatophyten und Schimmelpilzen.

On to “1-(2,4-Dichlorphenyl)-2-Eimidazol-1-yl)-3-(methylcyclohexen-3-yl)-2-propen-l-on [Beispiel 1]”, for which the “antimykotische Wirkung” value is “bessere antimykotische Wirkung als die aus dem Stand der Technik bekannte Verbindung (A)”.

Regarding `CCC(C=C(C(=O)c1ccc(Cl)cc1Cl)n1ccnc1)CC` [Beispiel 5], the “antimykotische Wirkung” value is recorded as “bessere antimykotische Wirkung als die aus dem Stand der Technik bekannte Verbindung (A)”.

As for `CCC(C)C=C(C(=O)c1ccc(Cl)cc1Cl)n1ccnc1` (centres unmarked) [Beispiel 6], the “antimykotische Wirkung” value is reported as “bessere antimykotische Wirkung als die aus dem Stand der Technik bekannte Verbindung (A)”.

`CCCC(C)C=C(C(=O)c1ccc(Cl)cc1Cl)n1ccnc1` (centres unmarked) [Beispiel 7]: the “antimykotische Wirkung” value is given as “bessere antimykotische Wirkung als die aus dem Stand der Technik bekannte Verbindung (A)”.

Regarding `CCCCC(C=C(C(=O)c1ccc(Cl)cc1Cl)n1ccnc1)CC` (centres unmarked) [Beispiel 9], the “antimykotische Wirkung” value is reported as “bessere antimykotische Wirkung als die aus dem Stand der Technik bekannte Verbindung (A)”.
